# From patent EP0452101B1, “Spiro bridged and unbridged heterocyclic compounds” (ISRAEL INSTITUTE FOR BIOLOGICAL RESEARCH, priority 1990, dated 1991)
# “And” between values parts separate entries of the source, which are not always exact repeats. Equal values may be shown once. Read-outs that look alike come from different tables or passages of the source.
# Columns and labels:
# muscarinic receptors = test: (-)3H-QNB binding to rat cerebral cortex homogenates with and without Cu++ treatment; settings: for Ki: read-out: KL
# M1 muscarinic receptor [1] = target: T1, M1 muscarinic receptor (Rattus norvegicus, UniProt P08482); test: Displacement of 3H-QNB from rat cerebral cortex, 50 mM phosphate buffer; type: binding; settings: for RATIOS c:a: KH2 cerebellum : KH1 cortex (3H-QNB); for % H1 / Ki: cortex, Table 5; for Ki: read-out: 3H-QNB-Binding KH1 (a)
# T1 sequence (P08482 1-460): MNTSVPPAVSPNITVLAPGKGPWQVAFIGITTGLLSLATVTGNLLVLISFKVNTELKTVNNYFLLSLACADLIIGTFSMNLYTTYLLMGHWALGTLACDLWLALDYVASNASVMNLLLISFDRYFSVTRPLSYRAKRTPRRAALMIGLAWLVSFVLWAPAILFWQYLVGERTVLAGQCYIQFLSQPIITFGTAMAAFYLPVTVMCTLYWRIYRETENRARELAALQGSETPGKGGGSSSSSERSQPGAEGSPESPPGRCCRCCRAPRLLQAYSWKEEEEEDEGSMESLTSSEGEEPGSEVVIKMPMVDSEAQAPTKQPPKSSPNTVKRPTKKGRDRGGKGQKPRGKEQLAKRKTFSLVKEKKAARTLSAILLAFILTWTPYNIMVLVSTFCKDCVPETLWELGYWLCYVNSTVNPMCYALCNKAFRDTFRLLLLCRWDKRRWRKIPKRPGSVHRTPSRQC
# M2 muscarinic receptors = target: T2, M2 muscarinic receptors (Rattus norvegicus, UniProt P10980); test: Displacement of 3H-QNB from rat cerebellum, 50 mM phosphate buffer; type: binding
# T2 construct: displacing from rat brain homogenates, cerebellum or frontal cortex; from tissue; host or cells: rat cerebellum homogenates
# T2 sequence (P10980 1-466): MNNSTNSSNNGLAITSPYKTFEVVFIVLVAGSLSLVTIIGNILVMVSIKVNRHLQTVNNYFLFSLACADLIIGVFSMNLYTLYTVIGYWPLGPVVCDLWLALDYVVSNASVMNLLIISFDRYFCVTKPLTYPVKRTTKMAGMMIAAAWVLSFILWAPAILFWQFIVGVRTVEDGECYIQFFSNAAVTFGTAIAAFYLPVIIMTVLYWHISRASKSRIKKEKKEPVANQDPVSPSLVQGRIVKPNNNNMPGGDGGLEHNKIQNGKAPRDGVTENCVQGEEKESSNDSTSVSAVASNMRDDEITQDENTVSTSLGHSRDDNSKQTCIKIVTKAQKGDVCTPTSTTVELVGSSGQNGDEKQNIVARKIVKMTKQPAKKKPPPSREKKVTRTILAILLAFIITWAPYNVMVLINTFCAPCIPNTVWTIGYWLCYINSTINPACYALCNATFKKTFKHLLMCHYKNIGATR
# M1 muscarinic receptor [2] = target: T1, M1 muscarinic receptor; test: Displacement of 3H-PZ from rat cerebral cortex, 10 mM phosphate buffer; type: binding; design: from tissue; host or cells: rat cerebral cortex homogenates; settings: for RATIOS c:a: KH cerebellum (3H-QNB) : KH cortex (3H-PZ)
# scopolamine-treated rats = test: Passive avoidance (PA) in scopolamine-treated rats; type: in vivo, Sprague-Dawley rats
# Procedure: Naive male Sprague-Dawley rats, three months old (obtained from Charles River Breeding, U.K.), were used (weighing 200-300 g.). The passive avoidance (PA) test is according to Fisher et al, Neurosci. Lett. 102: 325 (1989), except that in these rats amnesia was induced by scopolamine.
# Eight groups of 17-20 naive rats were used. Each group was divided into two subgroups of 7-10 rats each: subgroup 1 was injected with scopolamine HBr (0.5 mg./kg. in saline, s.c., 15 min. before the shock) and subgroup 2 was injected with saline (1 ml./kg., s.c., 15 min. before the shock). Seven of the groups were treated within one minute after the shock with one of the following doses of the tested compound: 0.1, 0.5, 1, 3, 5, 8, 10 mg./kg. (in saline, i.p.) and one group received saline (1 ml./kg., i.p.).
# Eight groups of 18-20 naive rats each were used. Each group was divided into two subgroups of 9-10 rats each: subgroup 1 was injected with scopolamine HBr (0.5 mg./kg. in saline, s.c., 15 min. before the shock) and subgroup 2 was injected with saline (1 ml./kg., s.c., 15 min. before the shock). Seven of the groups were treated, within one minute after the shock, with one of the following doses of AF125(N): 0.1, 0.5, 1, 3, 5, 8 or 10 mg./kg. (in saline, i.p.) and one group received saline (1 ml./kg., i.p.).
# [3] = system: Male white mice of the CD-1 strain; test: Pharmacodynamic profile and general toxicity, Part B (signs, mortality, LD50); type: in vivo; design: key to Altered spontaneous motor activity (Mot): increased (inc); decreased (dec); key to Piloerection (Pil) / Hypothermia (Hyp) / Salivation (Sal) / Lacrimation (Lac) / Diarrhea (Dia) / Mydriasis (Myd): sli = slight; mod = moderate; sev = severe; settings: Table 10
# Text: Male white mice of the CD-1 strain (Charles River, UK), within the body weight range of 18-26 g, were used throughout this study, carried out on AF123, AF125 and AF125(N).
# Furthermore, these initial trials clearly established that the major signs of reactions to treatment consisted primarily of signs characteristic for potential cholinomimetic activity of the test material, such as tremors, salivation, lacrimation, diarrhea, analgesia, hypothermia and vasodilation. […]
# [4] = with Cu++ pretreatment (100 µM, 30 minutes)
# [5] = cortex, Table 4, read-out: 3H-PZ-Binding KH (a)
# [6] = post-shock AF125(N) 0.1 mg/kg i.p., pre-shock Scopolamine
# [7] = post-shock AF125(N) 0.1 mg/kg i.p., pre-shock saline
# [8] = post-shock AF125(N) 0.5 mg/kg i.p., pre-shock Scopolamine, 0.5 mg/kg
# [9] = post-shock AF125(N) 0.5 mg/kg i.p., pre-shock saline
# [10] = post-shock AF125(N) 1.0 mg/kg i.p., pre-shock Scopolamine
# [11] = post-shock AF125(N) 1.0 mg/kg i.p., pre-shock saline
# [12] = post-shock AF125(N) 3.0 mg/kg i.p., pre-shock Scopolamine
# [13] = post-shock AF125(N) 3.0 mg/kg i.p., pre-shock saline
# [14] = post-shock AF125(N) 5.0 mg/kg i.p., pre-shock Scopolamine
# [15] = post-shock AF125(N) 5.0 mg/kg i.p., pre-shock saline, 5 mg/kg
# [16] = post-shock AF125(N) 8.0 mg/kg i.p., pre-shock Scopolamine
# [17] = post-shock AF125(N) 8.0 mg/kg i.p., pre-shock saline
# [18] = post-shock AF125(N) 10.0 mg/kg i.p., pre-shock Scopolamine
# [19] = post-shock AF125(N) 10.0 mg/kg i.p., pre-shock saline
# [20] = 20 mg/kg i.v., animals affected/treated
structure (smiles),measurement,setting,value
CN1[C@@H]2C[C@@H](OC(=O)[C@H](CO)c3ccccc3)C[C@H]1[C@@H]1O[C@@H]12 [Scopolamine],%H (% of high affinity state),muscarinic receptors; [4],0%
same,Ki,muscarinic receptors; with Cu++ pretreatment,0.1 ± 0.005 nM
same,%H (% of high affinity state),muscarinic receptors; without pretreatment,0%
same,Ki,muscarinic receptors; without pretreatment,0.09 ± 0.004 nM
CN1CCN(CC(=O)N2c3ccccc3C(=O)Nc3cccnc32)CC1 [Pirenzepine],%H (% of high affinity state),muscarinic receptors; [4],64±6%
same,%H (% of high affinity state),muscarinic receptors; without pretreatment,72±3%
"NC1=NCC2(CN3CCC2CC3)O1 (centres unmarked) [AF125(N), 2-Amino-spiro(1,3-oxazoline-5,3')quinuclidine]",RATIOS c:a,M1 muscarinic receptor [1],0.4
same,% H1,M1 muscarinic receptor [1],100%
same,Ki,M1 muscarinic receptor [1],112000 nM
same,% H,"M2 muscarinic receptors; cerebellum, Table 4",100%
same,% H2,"M2 muscarinic receptors; cerebellum, Table 5",100%
same,Ki,M2 muscarinic receptors; read-out: 3H-QNB-Binding KH2 (c),50000 nM
same,Ki,M2 muscarinic receptors; read-out: 3H-QNB-Binding KH (c),5000 nM
same,RATIOS c:a,M1 muscarinic receptor [2],83
same,% H,"M1 muscarinic receptor [2]; cortex, Table 4",28%
same,%L,"M1 muscarinic receptor [2]; cortex, Table 4",72%
same,Ki,M1 muscarinic receptor [2]; [5],600 nM
same,Ki,"M1 muscarinic receptor [2]; cortex, Table 4, read-out: 3H-PZ-Binding KL (b)",3000 nM
same,doses with significant enhancing effect on retention latency,"scopolamine-treated rats; i.p., scopolamine-treated rats",0.5 mg/kg
same,"Initial latency, Mean",scopolamine-treated rats; [6],22.3 s
same,"Retention latency, Mean",scopolamine-treated rats; [6],199.7 s
same,"Initial latency, Mean",scopolamine-treated rats; [7],21.0 s
same,"Retention latency, Mean",scopolamine-treated rats; [7],554.7 s
same,"Initial latency, Mean",scopolamine-treated rats; [8],62.9 ± 17.4 s and 62.9 s
same,"Retention latency, Mean",scopolamine-treated rats; [8],332.7±80.9 sec. and 332.7* sec.
same,"Initial latency, Mean",scopolamine-treated rats; [9],28.1 s
same,"Retention latency, Mean",scopolamine-treated rats; [9],600.0 s
same,"Initial latency, Mean",scopolamine-treated rats; [10],29.1 s
same,"Retention latency, Mean",scopolamine-treated rats; [10],114.8 s
same,"Initial latency, Mean",scopolamine-treated rats; [11],22.0 s
same,"Retention latency, Mean",scopolamine-treated rats; [11],448.9 s
same,"Initial latency, Mean",scopolamine-treated rats; [12],23.1 s
same,"Retention latency, Mean",scopolamine-treated rats; [12],243.4 s
same,"Initial latency, Mean",scopolamine-treated rats; [13],44.1 s
same,"Retention latency, Mean",scopolamine-treated rats; [13],500.1 s
same,"Initial latency, Mean",scopolamine-treated rats; [14],24.6 s
same,"Retention latency, Mean",scopolamine-treated rats; [14],181.6 s
same,"Initial latency, Mean",scopolamine-treated rats; [15],65.1 ± 18.5 s and 65.1 s
same,"Retention latency, Mean",scopolamine-treated rats; [15],290.3 ± 52.1 s and 290.3 s
same,"Initial latency, Mean",scopolamine-treated rats; [16],16.3 s
same,"Retention latency, Mean",scopolamine-treated rats; [16],210.2 s
same,"Initial latency, Mean",scopolamine-treated rats; [17],19.3 s
same,"Retention latency, Mean",scopolamine-treated rats; [17],552.0 s
same,"Initial latency, Mean",scopolamine-treated rats; [18],21.5 s
same,"Retention latency, Mean",scopolamine-treated rats; [18],129.7 s
same,"Initial latency, Mean",scopolamine-treated rats; [19],4.9 s
same,"Retention latency, Mean",scopolamine-treated rats; [19],417.5 s
same,Altered spontaneous motor activity (Mot),[3]; 20 mg/kg i.v.,dec
same,Mortality no.,[3]; 20 mg/kg i.v.,0/5
same,Mydriasis (Myd),[3]; 20 mg/kg i.v.,sli
same,Salivation (Sal),[3]; 20 mg/kg i.v.,sli
same,Respiratory distress (Res),[3]; [20],4/5
same,Tremors (Tre),[3]; [20],3/5
same,Mortality no.,[3]; 50 mg/kg i.v.,5/5
same,Mortality time,[3]; 50 mg/kg i.v.,immed
same,Mortality no.,[3]; 100 mg/kg i.v.,5/5
same,Mortality time,[3]; 100 mg/kg i.v.,immed
same,Altered spontaneous motor activity (Mot),[3]; 200 mg/kg p.os,inc
same,Mortality no.,[3]; 200 mg/kg p.os,0/5
same,Mydriasis (Myd),[3]; 200 mg/kg p.os,sli
CN1[C@@H]2CC[C@H]1C[C@@H](OC(=O)C(CO)c1ccccc1)C2 (some centres unmarked) [Atropine],%H (% of high affinity state),muscarinic receptors,0%
"c1ccc(C2=NCC3(CN4CCC3CC4)O2)cc1 (centres unmarked) [AF125(Ph), 2-Phenyl-spiro(1,3-oxazoline-5,3')quinuclidine]",RATIOS c:a,M1 muscarinic receptor [1],1.7
same,% H1,M1 muscarinic receptor [1],100%
same,Ki,M1 muscarinic receptor [1],800 nM
same,% H,"M2 muscarinic receptors; cerebellum, Table 4",100%
same,Ki,"M2 muscarinic receptors; cerebellum, Table 4, read-out: 3H-QNB-Binding KH (c)",1370 nM
same,% H2,"M2 muscarinic receptors; cerebellum, Table 5",100%
same,Ki,"M2 muscarinic receptors; cerebellum, Table 5, read-out: 3H-QNB-Binding KH2 (c)",1370 nM
same,RATIOS c:a,M1 muscarinic receptor [2],17.1
same,% H,"M1 muscarinic receptor [2]; cortex, Table 4",100%
same,Ki,M1 muscarinic receptor [2]; [5],80 nM
